Experimental data: patent US7371731B2, “Methods for using glucose pentasulfate for treating amyloid associated with type II diabetes” (priority 1998, dated 2008)
Entries after “also recorded” stand apart in the source; their conditions may differ. Read-outs that look alike come from different tables or passages of the source. Each block holds one compound with its values, some of them ahead of it.

What was measured:
[1] = target: T1, Aβ-heparan sulfate binding (Homo sapiens, UniProt P05067); assay: Solid phase binding immunoassay, Aβ-heparan sulfate binding; settings: 2.5 to 0.093 mM; data not shown
T1 construct: 25 μM of Aβ (1-40)(Bachem Inc., Torrance, Calif., USA; Lot #WM365); purchased Bachem Inc., Torrance, Calif., USA
T1 sequence (P05067 672-711 limits assumed): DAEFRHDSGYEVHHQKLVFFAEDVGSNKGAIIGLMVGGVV
Description: 12 μg of heparin (molecular weight=5,000; obtained from the Sigma Chemical Company, St. Louis, Mo., USA) or heparan sulfate (molecular weight=˜70,000; obtained from Seikagaku America, Rockville, Md.) in 80 μl of Tris-buffered saline containing 100 mM Tris-HCl, 50 mM NaCl, 3 mM NaN3, pH 9.0 (TBS) was allowed to bind overnight at 4° C. to microtiter wells (Nunc plates, Maxisorb). The next day all of the microtiter wells were blocked for 2 hours by incubating with 300 μl of TBS with 0.05% Tween-20 (TTBS) plus 1% bovine serum albumin (BSA) (obtained from the Sigma Chemical Company, St. Louis, Mo., USA). Then, 100 μl of 5 μM Aβ 1-40 (Bachem Inc., Torrance, Calif., USA; Lot #WM365) in TTBS containing 0.05% albumin in the presence or absence of glucose pentasulfate at concentrations of 2.5 mM, 0.83 mM, 0.28 mM and 0.093 mM were placed in wells (in triplicate) containing substrate bound perlecan or blank, and allowed to bind overnight at 4° C. The next day, the wells were rinsed once with TTBS, and then probed for 45 minutes with 100 μl of anti-6E10 (Senetek, Maryland Heights, Mo.)(which recognizes Aβ 1-17) diluted 1:1000 with TTBS. […] The reaction was stopped with 50 μl of 4N H2SO4 and read on a Model 450 microplate reader (Biorad, Hercules, Calif., USA) at 490 nm.

Aβ-heparin binding = target: T2, Aβ-heparin binding (Homo sapiens, UniProt P05067); assay: Solid phase binding immunoassay, binding of Aβ to substrate bound heparin; settings: 5 μM Aβ 1-40
T2 construct: 25 μM of Aβ (1-40)(Bachem Inc., Torrance, Calif., USA; Lot #WM365); purchased Bachem Inc., Torrance, Calif., USA
T2 sequence (P05067 672-711 limits assumed): as above
Description: 12 μg of heparin (molecular weight=5,000; obtained from the Sigma Chemical Company, St. Louis, Mo., USA) or heparan sulfate (molecular weight=˜70,000; obtained from Seikagaku America, Rockville, Md.) in 80 μl of Tris-buffered saline containing 100 mM Tris-HCl, 50 mM NaCl, 3 mM NaN3, pH 9.0 (TBS) was allowed to bind overnight at 4° C. to microtiter wells (Nunc plates, Maxisorb). The next day all of the microtiter wells were blocked for 2 hours by incubating with 300 μl of TBS with 0.05% Tween-20 (TTBS) plus 1% bovine serum albumin (BSA) (obtained from the Sigma Chemical Company, St. Louis, Mo., USA). Then, 100 μl of 5 μM Aβ 1-40 (Bachem Inc., Torrance, Calif., USA; Lot #WM365) in TTBS containing 0.05% albumin in the presence or absence of glucose pentasulfate at concentrations of 2.5 mM, 0.83 mM, 0.28 mM and 0.093 mM were placed in wells (in triplicate) containing substrate bound perlecan or blank, and allowed to bind overnight at 4° C. The next day, the wells were rinsed once with TTBS, and then probed for 45 minutes with 100 μl of anti-6E10 (Senetek, Maryland Heights, Mo.)(which recognizes Aβ 1-17) diluted 1:1000 with TTBS. This was followed by rinsing once with TTBS and probed for 45 minutes with biotinylated goat-anti mouse (diluted 1:1000) containing streptavidin-peroxidase or anti-biotin-peroxidase (1:500 dilution of a 2 μg/ml solution) (Sigma Chemical Co., St. Louis, Mo.) in TTBS containing 0.1% BSA. The wells were then rinsed 3 times with TTBS and 100 μl of a substrate solution (OPD-Sigma Fast from Sigma Chemical Co., St. Louis, Mo.) was added to each well and allowed to develop for 5 minutes or until a significant color change was observed. The reaction was stopped with 50 μl of 4N H2SO4 and read on a Model 450 microplate reader (Biorad, Hercules, Calif., USA) at 490 nm.

Aβ (1-40) = target: T3, Aβ (1-40) (Homo sapiens, UniProt P05067); assay: Thioflavin T fluorometry assay of Aβ (1-40) amyloid fibril formation; type: biochemical; settings: for effect on Aβ (1-40) amyloid fibril formation (in words): 1.25 mM compound (1:50 M ratio), 1-week incubation
T3 construct: 25 μM of Aβ (1-40)(Bachem Inc., Torrance, Calif., USA; Lot #WM365); purchased Bachem Inc., Torrance, Calif., USA
T3 sequence (P05067 672-711 limits assumed): as above
From the text: A previously described method of measuring amyloid fibril formation utilizing Thioflavin T fluorometry (H Naiki et al, Lab. Invest. 65:104-110, 1991; H Levine III, Protein Sci. 2:404-410, 1993; H Levine III, Amyloid: Int. J. Exp. Clin. Invest. 2:1-6, 1995; H Naiki and K. Nakakuki, Lab. Invest. 74:374-383, 1996) was employed initially to identify potential therapeutic compounds capable of inhibiting Aβ amyloid fibril formation. Using this sensitive assay, any decreases or increases in fluorescence were previously shown to correlate with a decrease or increase in the amount of amyloid fibrils (H Naiki et al, Lab. Invest. 65:104-110, 1991; H Levine III, Protein Sci. 2:404-410, 1993; H Levine III, Amyloid: Int. J. Exp. Clin. Invest. 2:1-6, 1995; H Naiki and K. Nakakuki, Lab. Invest. 74:374-383, 1996), allowing one to determine the identification and extent of potential inhibitors and/or enhancers of amyloid fibril formation.
In an initial set of studies, the effects of various compounds on Aβ (1-40) fibrillogenesis was assessed. For these initial studies, 25 μM of Aβ (1-40)(Bachem Inc., Torrance, Calif., USA; Lot #WM365) was incubated in microcentrifuge tubes at 37° C. for 1 week (in triplicate), either alone, or in the presence of 1.25 mM (ie. 1:50 M ratio of Aβ:test compound) of various commercially available compounds (described below) in 150 mM Tris HCl, 10 mM NaCl, pH 7.0 (TBS). The compounds tested included glucose pentasulfate (PTI-48579, potassium salt; molecular weight=771), mannose pentasulfate (PTI-07499, potassium salt; molecular weight=771), methyl alpha-D-glucopyranoside 2,3,4,6-tetrasulfate (PTI-20049, potassium salt; molecular weight=667), methyl alpha-D-mannopyranoside 2,3,4,6-tetrasulfate (PTI-20814, potassium salt; molecular weight=667), sucrose heptasulfate (PTI-70936, potassium salt; molecular weight=1169), sucrose hexasulfate (PTI-70946, potassium salt; molecular weight=1052), and sucrose octasulfate (PTI-70011, potassium salt; molecular weight=1288).
(§1) To assess the effects of each compound on Aβ (1-40) fibril formation, 50 μl aliquots were taken from each tube for analysis at 1 hr, 1 day, 3 days, and 1 week. For each determination described above, following each incubation period, 50 μl of Aβ+/−test compounds were added to 1.2 ml of 100 μM Thioflavin T (Sigma Chemical Co., St. Louis, Mo.) in 50 mM NaPO4 (pH 6.0). […] Fluorescence emission at 482 nm was measured on a Turner instrument-model 450 fluorometer at an excitation wavelength of 450 nm. For each determination, the fluorometer was calibrated by zeroing in the presence of the Thioflavin T reagent alone, and by seting the 50 ng/ml riboflavin (Sigma Chemical Co., St. Louis, Mo.) in the Thioflavin T reagent to 1800 fluorescence units. All fluorescence determinations were based on these references and any fluorescence given off by any of the compounds in the presence of the Thioflavin T reagent was always subtracted from all pertinent readings.
For all fibrillogenesis studies utilizing Thioflavin T fluorometry, comparisons of Aβ in the presence or absence of test compounds were based on paired Student's t tests with data shown as mean+/−standard deviation. Significance was reported at the 95% (p<0.05), 99% (p<0.01) and 99.9% (p<0.001) confidence levels.
In this study, the dose-dependent effects of glucose pentasulfate (PTI-48579) on Aβ (1-40) fibrillogenesis was determined using the Thioflavin T fluorometry assay. 25 μM of Aβ (1-40) (Bachem Inc., Torrance, Calif., USA; Lot #WM365) was incubated in microcentrifuge tubes at 37° C. for 1 week (in triplicate), either alone, or in the presence of 1.25 mM (ie. 1:50 M ratio of Aβ:PTI-48579), 0.41 mM, 0.138 mM and 0.046 mM of glucose pentasulfate in 150 mM Tris HCl, 10 mM NaCl, pH 7.0 (TBS). 50 μl aliquots were taken from each tube for analysis at 1 hr, 1 day, 3 days, and 1 week using Thioflavin T fluorometry as described in section 4.1. […]

[2] = target: T4, human islet amyloid polypeptide (Homo sapiens, UniProt P10997); assay: Thioflavin T fluorometry assay of islet amyloid polypeptide (amylin) fibrils; type: biochemical; settings: 1.25 mM
T4 construct: consists of a 37 amino acid protein known as islet amyloid polypeptide or amylin; purchased Bachem Inc, Torrance, Calif., USA
T4 sequence (P10997 34-70 limits assumed): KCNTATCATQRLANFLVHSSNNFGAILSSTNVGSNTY
Description: as §1
For this study, the method of Thioflavin T fluorometry as described above was used. Briefly, 25 μM of human islet amyloid polypeptide (Bachem Inc, Torrance, Calif., USA, Lot # WL934) was incubated in microcentrifuge tubes at 37° C. for 1 week (in triplicate), either alone, or in the presence of 1.25 mM glucose pentasulfate (PTI-48579; molecular weight=771) or mannose pentasulfate (PTI-07499; molecular weight=771). To assess the effects of glucose pentasulfate and mannose pentasulfate on islet amyloid polypeptide fibrillogenesis, 50 μl aliquots were taken from each tube for analysis at 1 hr, 1 day, 2 days, 3 days, 4 days and 1 week. For each determination described above, following each incubation period, 50 μl aliquots of islet amyloid polypeptide+/−glucose pentasulfate or mannose pentasulfate were added to 1.2 ml of 100 μM Thioflavin T (Sigma Chemical Co., St. Louis, Mo.) in 50 mM NaPO4 (pH 6.0) for fluorometry readings as described in section 4.1.

[3] = target: T5, pre-formed Aβ (1-40) amyloid fibrils (Homo sapiens, UniProt P05067); assay: Thioflavin T fluorometry assay of dissolution of pre-formed Aβ (1-40) amyloid fibrils; type: biochemical; settings: 25 μM fibrillized Aβ, 4 day incubation
T5 construct: 25 μM of Aβ (1-40)(Bachem Inc., Torrance, Calif., USA; Lot #WM365); purchased Bachem Inc., Torrance, Calif., USA
T5 sequence (P05067 672-711 limits assumed): as the sequence (P05067 672-711 limits assumed) above
Description: as §1
For this study, 1 mg of Aβ (1-40) (Bachem Inc., Torrance, Calif., USA; Lot #WM365) was dissolved in 1.0 ml of double distilled water (1 mg/ml solution) and then incubated at 37° C. for 1 week. 25 μM of fibrillized Aβ was then incubated at 37° C. in the presence or absence of glucose pentasulfate at concentrations of 1.25 mM, 0.63 mM, 0.31 mM and 0.16 mM containing 150 mM Tris HCl, 10 mM NaCl, pH 7.0. Following a 4 day incubation, 50 μl aliquots were added to 1.2 ml of 100 μM Thioflavin T (Sigma Chemical Co., St. Louis, Mo.) in 50 mM NaPO4 (pH 6.0) for fluorometry readings as described in section 4.1.

inhibition of Aβ-heparan sulfate binding (in words) [1]: significant dose-dependent inhibition
inhibition at 93 µM (Aβ-heparin binding; 0.093 mM): 45%
inhibition at 280 µM (Aβ-heparin binding; 0.28 mM): 74%
inhibition at 830 µM (Aβ-heparin binding; 0.83 mM): 92%
inhibition at 2500 µM (Aβ-heparin binding; 2.5 mM): 78%
effect on Aβ (1-40) amyloid fibril formation (in words) (Aβ (1-40); Example 1, 25 μM Aβ (1-40)): inhibited
inhibition at 1250 µM (Aβ (1-40); Example 1, 25 μM Aβ (1-40), 1.25 mM compound, 37° C., 1 week, read-out: inhibition of Aβ (1-40) amyloid fibril formation): 80%
inhibition of Aβ amyloid fibril formation (in words) (Aβ (1-40); Example 1, 1.25 mM compound, 3 days): Significant inhibition
inhibition of Aβ fibril formation (in words) (Aβ (1-40); Example 2, 0.046 mM, 3 days): did not significantly inhibit
inhibition of Aβ fibril formation (in words) (Aβ (1-40); Example 2, 0.138 mM, 3 days): did not significantly inhibit
inhibition at 410 µM (Aβ (1-40); Example 2, 0.41 mM, 1 week, read-out: inhibition of Aβ (1-40) fibrillogenesis): 47%
inhibition of Aβ fibril formation (in words) (Aβ (1-40); Example 2, 0.41 mM, 3 days): did not significantly inhibit
inhibition at 1250 µM (Aβ (1-40); Example 2, 1.25 mM, 1 week, read-out: inhibition of Aβ (1-40) fibrillogenesis): 72%
inhibition at 1250 µM (Aβ (1-40); Example 2, 1.25 mM, 3 days, read-out: inhibition of Aβ fibril formation): 39%
dissolution of pre-formed amylin fibrils ([2]; 25 μM islet amyloid polypeptide, 1 week): 57%
effect on islet amyloid polypeptide fibrillogenesis at earlier time points (in words) ([2]; 1 hour, 1 day and 2 days): initial increase
dissolution of pre-formed Aβ amyloid fibrils ([3]; 0.16 mM): 23%
dissolution of pre-formed Aβ amyloid fibrils ([3]; 0.31 mM): 31%
dissolution of pre-formed Aβ amyloid fibrils ([3]; 0.63 mM): 47%
dissolution of pre-formed Aβ amyloid fibrils ([3]; 1.25 mM): 60%
Compound: O=C[C@H](OS(=O)(=O)O)[C@@H](OS(=O)(=O)O)[C@H](OS(=O)(=O)O)[C@@H](COS(=O)(=O)O)OS(=O)(=O)O [PTI-48579, glucose pentasulfate]

effect on islet amyloid polypeptide fibrillogenesis (in words) ([2]; all time points (1 hr to 1 week)): significant increase
Compound: O=C[C@@H](OS(=O)(=O)O)[C@@H](OS(=O)(=O)O)[C@H](OS(=O)(=O)O)[C@@H](COS(=O)(=O)O)OS(=O)(=O)O [mannose pentasulfate, reference compound]
effect on Aβ (1-40) amyloid fibril formation (in words) (Aβ (1-40); Example 1, 25 μM Aβ (1-40)): ineffective inhibitors; also recorded: did not inhibit

effect on Aβ (1-40) amyloid fibril formation (in words) (Aβ (1-40); Example 1, 25 μM Aβ (1-40)): ineffective inhibitors
Compound: CO[C@H]1O[C@H](COS(=O)(=O)O)[C@@H](OS(=O)(=O)O)[C@H](OS(=O)(=O)O)[C@H]1OS(=O)(=O)O [methyl alpha-D-glucopyranoside 2,3,4,6-tetrasulfate, reference compound]
